This is an account of results in paper PMC3352823, “In Vitro and In Vivo Activity of a Palladacycle Complex on Leishmania (Leishmania) amazonensis” (PLoS Neglected Tropical Diseases, 2012).

SMILES strings stand for the structures.

One may read the IC50 as the concentration that gives 50% inhibition.

The experiment has as its system T1, L. (L.) amazonensis cathepsin B.
T1 construct: gene CPC; native enzyme in amastigote lysate (hamster lesion amastigotes), not purified; activity defined by cathepsin B substrate and CA074
The format is biochemical, Leishmania amazonensis. To be noted: substrate Abz-Gly-Ile-Val-Arg-Ala-Lys(Dnp)-OH 10 µM; pH 5.0, 37 °C, 2 mM DTT.

With `CCCNC(=O)[C@H]1O[C@@H]1C(=O)N[C@H](C(=O)N1CCC[C@H]1C(=O)O)[C@@H](C)CC` [CA074], the IC50 amounted to 700 ± 80 nM.
